Experimental data as given in patent US10596166B2, “Combination composition comprising huperzine” (priority 2015, dated 2020).

Test system: TH positive dopaminergic neurons injured with MPP+
Assay: MPP+ toxicity on TH positive dopaminergic neurons of primary mesencephalic culture
Assay type: cell-based, rat
Conditions: MPP+ 4 μM, 48 h
Description: Rat dopaminergic neurons were cultured as described by Schinelli et al., J Neurochem. 1988 June; 50(6):1900-7 and Visanji et al., 2008 [previously cited].
Briefly, the midbrains obtained from 15-days old rat embryos (Janvier Labs, France) were dissected under a microscope. The embryonic midbrains were removed and placed in ice-cold medium of Leibovitz (L15, Pan Biotech) containing 2% of Penicillin-Streptomycin (PS, Pan Biotech) and 1% of bovine serum albumin (BSA, Pan Biotech). The ventral portion of the mesencephalic flexure, a region of the developing brain rich in dopaminergic neurons, was used for the cell preparations.
The midbrains were dissociated by trypsinisation for 20 min at 37° C. (Trypsin 0.05% EDTA 0.02%, PanBiotech). The reaction was stopped by the addition of Dulbecco's modified Eagle's medium (DMEM, PanBiotech) containing DNAase I grade II (0.1 mg/ml, PanBiotech) and 10% of foetal calf serum (FCS, Gibco). Cells were then mechanically dissociated by 3 passages through a 10 ml pipette. Cells were then centrifuged at 180×g for 10 min at +4° C. on a layer of BSA (3.5%) in L15 medium. The supernatant was discarded and the cell pellets were re-suspended in a defined culture medium consisting of Neurobasal (Invitrogen) supplemented with B27 (2%, Invitrogen, Batch: 1589889), L-glutamine (2 mM, PanBiotech) and 2% of PS solution and 10 ng/ml of Brain-derived neurotrophic factor (BDNF, PanBiotech) and 1 ng/ml of Glial-Derived Neurotrophic Factor (GDNF, PanBiotech). Viable cells were counted in a Neubauer cytometer using the trypan blue exclusion test. The cells were seeded at a density of 40 000 cells/well in 96 well-plates pre-coated with poly-L-lysine (Corning Biocoat) and maintained in a humidified incubator at 37° C. in 5% CO2/95% air atmosphere. Half of the medium was changed every 2 days with fresh medium.
On day 6 of culture, the medium was removed and fresh medium was added, without or with MPP^+ (Sigma) at 4 μM diluted in control medium, 6 wells per condition were assessed.
On day 6 of culture, NSP01-001-E001 (2.5, 5, 50, 500 ng/ml, 2.5, 5, 25, 33.3 μg/ml) were solved or diluted in culture medium and then pre-incubated with primary mesencephalic neurons for 1 hour before the MPP^+ application. MPP^+ solution was added to a final concentration of 4 μM diluted in control medium.
After 48 hours intoxication, the cells were then fixed by a solution of 4% paraformaldehyde (PFA, Sigma) in PBS (PAN), pH=7.3 for 20 min at room temperature. The cells were washed again twice in PBS, and then were permeabilized and non-specific sites were blocked with a solution of PBS containing 0.1% of saponin (Sigma) and 1% FCS for 15 min at room temperature. Then, cells were incubated with Monoclonal Anti-Tyrosine Hydroxylase (TH, Sigma) antibody produced in mouse at dilution of 1/10000 in PBS containing 1% FCS, 0.1% saponin, for 2 h at room temperature.
The immunolabeled cultures were automatically examined with ImageXpress (Molecular Devices) equipped with a LED at ×10 magnification. For each condition (6 culture wells), 20 automatically fields per well (representing ˜80% of the total surface of the well) were analyzed. The total number of TH neurons was automatically analyzed using MetaXpress software (Molecular Devices). Data were expressed in percentage of control conditions (no intoxication, no MPP^+=100%) in order to express the MPP^+ injury. All values were expressed as mean±SEM (s.e. mean) of the 6 wells. Graphs and statistical analyses were performed on the different conditions (ANOVA followed by Dunnett's or PLSD Fisher's test when allowed, using GraphPad Prism software).
The protocol used in these assays is the same as described in example 4.
HA (1, 10, 100 nM, 1, 10, 100 μM), CA (5, 50, 500 pM, 5, 50, 500 nM, 1 μM), FA (100 pM, 1, 10, 100 nM, 1, 10, 100 μM and 1 mM) and mixtures thereof were solved or diluted in culture medium and then pre-incubated with primary mesencephalic neurons for 1 hour before the MPP^+ application. […]

C/C=C1\[C@H]2C=C(C)C[C@]1(N)c1ccc(=O)[nH]c1C2 [HA, huperzine A, reference compound]
TH positive neuron survival (1 nM): inactive
TH positive neuron survival (100 nM): > 90%
TH positive neuron survival (100 μM (in some well toxicity occurred)): did not show some protective effect
TH positive neuron survival (from 10 nM up to 10 μM): large and significant protective effect

COc1cc(/C=C/C(=O)O)ccc1O [FA, ferulic acid]
concentration of maximal effect (bell shape curve): 10 µM
TH positive neuron survival (100 pM up to 100 nM): inactive
TH positive neuron survival (from 1 μM to 1 mM): significant protective effect

O=C(O)/C=C/c1ccc(O)c(O)c1 [CA, caffeic acid]
TH positive neuron survival (5 nM up to 1 μM): large and significant protective effect
